This note sets out measurements from patent US11192850B2, “N-aryl oxamic acids” (Purdue Research Foundation, priority 2020, dated 2021).

Format in all cases: biochemical
In one experiment the target is PTP1B (Homo sapiens (Human), UniProt P18031). The experiment in a line: pNPP inhibition assay against PTP1B. The following applies: pNPP at Km of the PTP.
The next experiment deals with SHP2 (Homo sapiens (Human), UniProt Q06124). The experiment in a line: pNPP inhibition assay against SHP2. The following applies: pNPP at Km of the PTP.
SHP2, sequence (Q06124 247-517): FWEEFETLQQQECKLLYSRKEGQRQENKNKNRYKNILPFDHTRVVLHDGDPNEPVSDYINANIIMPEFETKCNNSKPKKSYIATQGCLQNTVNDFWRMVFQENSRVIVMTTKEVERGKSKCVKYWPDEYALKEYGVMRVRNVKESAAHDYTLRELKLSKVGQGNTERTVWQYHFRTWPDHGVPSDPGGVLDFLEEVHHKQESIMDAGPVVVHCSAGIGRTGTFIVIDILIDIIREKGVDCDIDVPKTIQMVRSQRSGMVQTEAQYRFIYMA
For the next experiment, the target named is mPTPB (Mycobacterium tuberculosis (strain ATCC 25618 / H37Rv), UniProt I6WXK4).
mPTPB, sequence (I6WXK4 whole entry, looked up): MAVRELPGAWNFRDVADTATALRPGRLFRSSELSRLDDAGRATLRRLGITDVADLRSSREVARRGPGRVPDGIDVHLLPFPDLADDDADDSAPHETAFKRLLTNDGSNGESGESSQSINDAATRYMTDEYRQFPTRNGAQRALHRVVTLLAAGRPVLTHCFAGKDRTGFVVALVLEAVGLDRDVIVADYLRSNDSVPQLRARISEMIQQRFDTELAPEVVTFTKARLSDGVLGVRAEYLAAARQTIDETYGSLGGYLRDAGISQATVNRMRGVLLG
The next experiment deals with SHP1 (Homo sapiens (Human), UniProt P29350). As to the kind of experiment: pNPP inhibition assay against SHP1. To be noted: pNPP at Km of the PTP.
SHP1, sequence (P29350 244-515): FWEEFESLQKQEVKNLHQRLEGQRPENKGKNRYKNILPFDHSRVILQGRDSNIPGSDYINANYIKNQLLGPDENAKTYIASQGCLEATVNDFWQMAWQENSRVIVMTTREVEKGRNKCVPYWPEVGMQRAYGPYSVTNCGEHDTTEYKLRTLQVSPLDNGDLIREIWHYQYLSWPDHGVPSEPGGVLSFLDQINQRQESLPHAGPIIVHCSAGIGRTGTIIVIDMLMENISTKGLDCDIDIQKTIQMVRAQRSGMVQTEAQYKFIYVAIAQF
[1] abbreviates: pNPP assay, pH 7.0, 3.0 mM pNPP.

The structures appear in SMILES notation. Where two headings read alike, the source gives them in different places.

PTP1B, sequence (P18031 3-277): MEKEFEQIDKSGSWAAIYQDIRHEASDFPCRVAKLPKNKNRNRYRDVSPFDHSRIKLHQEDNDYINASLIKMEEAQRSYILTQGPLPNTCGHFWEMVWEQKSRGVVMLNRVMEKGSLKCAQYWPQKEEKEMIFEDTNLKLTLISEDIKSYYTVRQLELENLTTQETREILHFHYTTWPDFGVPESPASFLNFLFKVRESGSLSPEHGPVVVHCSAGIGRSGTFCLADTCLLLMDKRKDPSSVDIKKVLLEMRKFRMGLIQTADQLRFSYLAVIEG

For orientation: IC50 means the concentration at which inhibition is half-maximal. High values mean a need for much substance, low ones inhibition by little substance. On to `O=C(O)C(=O)Nc1ccccc1` [Compound 1, Oxanilic Acid], for which the IC50 against PTP1B and at SHP2 was greater than 100 µM in each case.

As to `C#Cc1ccc(NC(=O)C(=O)O)cc1` [Compound 2, 2-((4-ethynylphenyl)amino)-2-oxoacetic Acid], the IC50 on PTP1B and on SHP2 was greater than 100 µM in each case.

With `CC(C)(C)OC(=O)NCC#Cc1ccc(NC(=O)C(=O)O)cc1` [Compound 3, 2-((4-(3-((tert-butoxycarbonyl)amino)prop-1-yn-1-yl)phenyl)amino)-2-oxoacetic Acid], the figures for the IC50 against PTP1B and against SHP2 were greater than 100 µM and 58 ± 2 µM, respectively.

With `O=C(O)C(=O)Nc1ccc(C#Cc2ccccc2)cc1` [Compound 4, 2-oxo-2-((4-(phenylethynyl)phenyl)amino)acetic Acid], the half-inhibitory concentration (IC50) against PTP1B is greater than 100 µM; against SHP2, greater than 100 µM; at mPTPB it was 0.257 ± 0.008 µM; against SHP1 it was greater than 100 µM. The “fold more potency compared to the meta derivative 5” value at mPTPB is listed as 2 fold.

In the case of `COC(=O)c1ccc(C#Cc2ccc(NC(=O)C(=O)O)cc2)cc1` [Compound 4a, 2-((4-((4-(methoxycarbonyl)phenyl)ethynyl)phenyl)amino)-2-oxoacetic Acid], the IC50 against PTP1B is greater than 100 µM; against SHP2 it was 52.6 ± 6.4 µM; on mPTPB (setting [1]) it was 0.023 ± 0.004 µM; against SHP1, greater than 100 µM.

Consider `COC(=O)c1cc(C#Cc2ccc(NC(=O)C(=O)O)cc2)ccc1O` [Compound 4b, 2-((4-((4-hydroxy-3-(methoxycarbonyl)phenyl)ethynyl)phenyl)amino)-2-oxoacetic Acid], for which the IC50 on PTP1B is greater than 50 µM; against SHP2, 27.3 ± 3.3 µM; at mPTPB (setting [1]), 0.025 ± 0.003 µM; against SHP1, greater than 50 µM.

In the case of `COC(=O)c1ccc(C#Cc2ccc(NC(=O)C(=O)O)cc2)cc1O` [Compound 4c, 2-((4-((3-hydroxy-4-(methoxycarbonyl)phenyl)ethynyl)phenyl)amino)-2-oxoacetic Acid], the IC50 on PTP1B, against SHP2 and against SHP1 was greater than 50 µM throughout.

On to `COC(=O)c1cc(C#Cc2ccc(NC(=O)C(=O)O)cc2)c(N(C)C)cc1O` [Compound 4d, 2-((4-((2-(dimethylamino)-4-hydroxy-5-(methoxycarbonyl)phenyl)ethynyl)phenyl)amino)-2-oxoacetic Acid], for which the IC50 on PTP1B is greater than 50 µM; against SHP2, greater than 50 µM; at mPTPB (setting [1]), 0.03 ± 0.009 µM; against SHP1, greater than 50 µM.

`COC(=O)c1cc(C#Cc2cccc(NC(=O)C(=O)O)c2)c(N(C)C)cc1O` [Compound 4e, 2-((3-((2-(dimethylamino)-4-hydroxy-5-(methoxycarbonyl)phenyl)ethynyl)phenyl)amino)-2-oxoacetic Acid]: the IC50 against PTP1B, on SHP2 and on SHP1 was greater than 50 µM in each case.

`CN(C)c1cc(O)c(C(=O)O)cc1C#Cc1ccc(NC(=O)C(=O)O)cc1` [Compound 4f, 5-((4-(carboxyformamido)phenyl)ethynyl)-4-(dimethylamino)-2-hydroxybenzoic Acid]: the IC50 against PTP1B is greater than 100 µM; on SHP2, 78.5 ± 4.2 µM; against mPTPB (setting [1]) it was 0.09 ± 0.008 µM; on SHP1, 59.3 ± 6 µM.

As to `O=C(O)C(=O)Nc1ccc(C#Cc2ccc(OC(F)(F)F)cc2)cc1` [Compound 4i, 2-oxo-2-((4-((4-(trifluoromethoxy)phenyl)ethynyl)phenyl)amino)acetic Acid], the IC50 against PTP1B, at SHP2 and at SHP1 was greater than 50 µM throughout.

In the case of `O=C(O)C(=O)Nc1ccc(C#Cc2cccc(C(F)(F)F)c2)cc1` [Compound 4j, 2-oxo-2-((4-((3-(trifluoromethyl)phenyl)ethynyl)phenyl)amino)acetic Acid], the values for the IC50 against PTP1B, on SHP2 and at SHP1 were 29.5 ± 4.1 µM, greater than 50 µM and greater than 50 µM, respectively.

For `NS(=O)(=O)c1ccc(C#Cc2ccc(NC(=O)C(=O)O)cc2)cc1` [Compound 4l, 2-oxo-2-((4-((4-sulfamoylphenyl)ethynyl)phenyl)amino)acetic Acid], the IC50 against PTP1B was greater than 50 µM; against SHP2, greater than 50 µM; on SHP1, 29.9 ± 3.3 µM.

For `O=C(O)C(=O)Nc1ccc(C#Cc2ccc(O)cc2)cc1` [Compound 4m, 2-((4-((4-hydroxyphenyl)ethynyl)phenyl)amino)-2-oxoacetic Acid], the IC50 against PTP1B, on SHP2 and at SHP1 was greater than 50 µM in each case.

On to `O=C(O)C(=O)Nc1ccc(C#Cc2ccc(O)c(Br)c2)cc1` [Compound 4n, 2-((4-((3-bromo-4-hydroxyphenyl)ethynyl)phenyl)amino)-2-oxoacetic Acid], for which the 50% inhibitory concentration (IC50) against PTP1B was greater than 50 µM; on SHP2, 44.5 ± 3.4 µM; at SHP1, greater than 50 µM.

For `N#Cc1ccc(C#Cc2ccc(NC(=O)C(=O)O)cc2)cc1` [Compound 4o, 2-((4-((4-cyanophenyl)ethynyl)phenyl)amino)-2-oxoacetic Acid], the IC50 against PTP1B, at SHP2 and on SHP1 was greater than 50 µM in each case.

Turning to `O=C(O)C(=O)Nc1ccc(C#Cc2cc(C(F)(F)F)cc(C(F)(F)F)c2)cc1` [Compound 4p, 2-((4-((3,5-bis(trifluoromethyl)phenyl)ethynyl)phenyl)amino)-2-oxoacetic Acid], the IC50 against PTP1B is greater than 50 µM; on SHP2 it was greater than 50 µM; against mPTPB it was 0.06 ± 0.009 µM; against SHP1, greater than 50 µM. In addition, the “difference in IC50 values with and without Triton X-100 and with preincubation” value at mPTPB is recorded as “no significant difference”.

As for `CC(C)(C)OC(=O)Nc1ccc(C#Cc2ccc(NC(=O)C(=O)O)cc2)cc1` [Compound 4s, 2-((4-((4-((tert-butoxycarbonyl)amino)phenyl)ethynyl)phenyl)amino)-2-oxoacetic Acid], the IC50 against PTP1B, on SHP2 and against SHP1 was greater than 50 µM in each case.

For the compound `N#Cc1cc(C(F)(F)F)ccc1C#Cc1ccc(NC(=O)C(=O)O)cc1` [Compound 4w, 2-((4-((2-cyano-4-(trifluoromethyl)phenyl)ethynyl)phenyl)amino)-2-oxoacetic Acid], the IC50 on PTP1B worked out at 27.4 ± 6.3 µM; on SHP2, 10.6 ± 2.5 µM; against SHP1, 13.7 ± 3.1 µM.

Take `O=C(O)C(=O)Nc1ccc(C#Cc2ccc(C(F)(F)F)cc2C(F)(F)F)cc1` [Compound 4x, 2-((4-((2,4-bis(trifluoromethyl)phenyl)ethynyl)phenyl)amino)-2-oxoacetic Acid]: the IC50 against PTP1B, against SHP2 and on SHP1 was greater than 30 µM throughout.

In the case of `O=C(O)C(=O)Nc1cccc(C#Cc2ccccc2)c1` [Compound 5, 2-oxo-2-((3-(phenylethynyl)phenyl)amino)acetic Acid], the results for the IC50 at PTP1B and at SHP2 were greater than 100 µM and 69 ± 4 µM, respectively.

For `O=C(O)C(=O)Nc1ccc(-c2ccccc2)cc1` [Compound 6, 2-([1,1′-biphenyl]-4-ylamino)-2-oxoacetic Acid], the results for the IC50 against PTP1B and against SHP2 were 62 ± 5 µM and 29 ± 8 µM, respectively.

Consider `O=C(O)C(=O)Nc1cccc(-c2ccccc2)c1` [Compound 7, 2-([1,1′-biphenyl]-3-ylamino)-2-oxoacetic Acid], for which the IC50 against PTP1B and against SHP2 was greater than 100 µM throughout.

For the compound `O=C(O)C(=O)Nc1cnc2ccccc2c1` [Compound 8, 2-oxo-2-(quinolin-3-ylamino)acetic Acid], the 50% inhibitory concentration (IC50) against PTP1B is greater than 100 µM; against SHP2, greater than 100 µM; against mPTPB (setting [1]), greater than 10 µM.

As to `O=C(O)C(=O)Nc1ccc(/C=C\c2ccccc2)cc1` [Compound 9, (Z)-2-oxo-2-((4-styrylphenyl)amino)acetic Acid], the IC50 against PTP1B was greater than 30 µM; against SHP2, greater than 30 µM; against mPTPB, 0.77 ± 0.015 µM. Besides, the “fold less potency compared to corresponding alkyne analogs 4 and 4k” value at mPTPB amounted to 3 fold.

On to `O=C(O)C(=O)Nc1ccc(/C=C\c2ccc(C(F)(F)F)cc2)cc1` [Compound 10, (Z)-2-oxo-2-((4-(4-(trifluoromethyl)styryl)phenyl)amino)acetic Acid], for which the IC50 on PTP1B was greater than 30 µM; at SHP2, greater than 30 µM; on mPTPB, 0.684 ± 0.025 µM. Besides, the “fold less potency compared to corresponding alkyne analogs 4 and 4k” value on mPTPB came out at 45 fold.

On to `O=C(O)C(=O)Nc1ccc(CCc2ccccc2)cc1` [Compound 11, 2-oxo-2-((4-phenethylphenyl)amino)acetic Acid], for which the figures for the concentration for half-maximal inhibition (IC50) at PTP1B, at SHP2 and against mPTPB were greater than 30 µM, greater than 30 µM and 1.27 ± 0.2 µM, respectively. Further, the “fold less potency compared to corresponding alkyne analogs 4 and 4k” value at mPTPB amounted to 5 fold.

As for `O=C(O)C(=O)Nc1ccc(CCc2ccc(C(F)(F)F)cc2)cc1` [Compound 12, 2-oxo-2-((4-(4-(trifluoromethyl)phenethyl)phenyl)amino)acetic Acid], the IC50 was greater than 30 µM on PTP1B, greater than 30 µM against SHP2 and 0.197 ± 0.013 µM against mPTPB. Moreover, on mPTPB, the “fold less potency compared to corresponding alkyne analogs 4 and 4k” value is listed as 13 fold.
